Experimental data published in US20200113181A1, “HERBICIDAL COMPOUNDS” (SYNGENTA PARTICIPATIONS AG, priority 2016, published 2020).

Key:
Assay type in all cases: in vivo
Lolium perenne (LOLPE) = assay: Glasshouse herbicide test, pre- and post-emergence, Lolium perenne; details: 250 g/h, evaluated after 13 days; for LOLPE POST, percentage damage caused to the plant (five point scale): post-emergence; for LOLPE PRE, percentage damage caused to the plant (five point scale): pre-emergence
Method: (§1) Seeds of a variety of test species are sown in standard soil in pots (Lolium perenne (LOLPE), Setaria faberi (SETFA), Alopecurus myosuroides (ALOMY), Echinochloa crus-galli (ECHCG), Avena fatua (AVEFA)). After cultivation for one day (pre-emergence) or after 8 days cultivation (post-emergence) under controlled conditions in a glasshouse (at 24/16° C., day/night; 14 hours light; 65% humidity), the plants are sprayed with an aqueous spray solution derived from the formulation of the technical active ingredient in acetone/water (50:50) solution containing 0.5% Tween 20 (polyoxyethelyene sorbitan monolaurate, CAS RN 9005-64-5). Compounds are applied at […]. The test plants are then grown in a glasshouse under controlled conditions in a glasshouse (at 24/16° C., day/night; 14 hours light; 65% humidity) and watered twice daily. After 13 days for pre and post-emergence, the test is evaluated for the percentage damage caused to the plant. The biological activities are shown in the following table on a five point scale (5=80-100%; 4=60-79%; 3=40-59%; 2=20-39%; 1=0-19%).

Setaria faberi (SETFA) = assay: Glasshouse herbicide test, pre- and post-emergence, Setaria faberi; details: 250 g/h, evaluated after 13 days; for SETFA POST, percentage damage caused to the plant (five point scale): post-emergence; for SETFA PRE, percentage damage caused to the plant (five point scale): pre-emergence
Method: as §1

[1] = tested on: Echinochloa crus-galli (ECHCG); assay: Glasshouse herbicide test, pre- and post-emergence, Echinochloa crus-galli; details: 250 g/h, evaluated after 13 days; for ECHCG POST, percentage damage caused to the plant (five point scale): post-emergence; for ECHCG PRE, percentage damage caused to the plant (five point scale): pre-emergence
Method: as §1

Avena fatua (AVEFA) = assay: Glasshouse herbicide test, pre- and post-emergence, Avena fatua; details: 250 g/h, evaluated after 13 days; for AVEFA POST, percentage damage caused to the plant (five point scale): post-emergence; for AVEFA PRE, percentage damage caused to the plant (five point scale): pre-emergence
Method: as §1

[2] = tested on: Alopecurus myosuroides (ALOMY); assay: Glasshouse herbicide test, pre- and post-emergence, Alopecurus myosuroides; details: 250 g/h, evaluated after 13 days; for ALOMY POST, percentage damage caused to the plant (five point scale): post-emergence; for ALOMY PRE, percentage damage caused to the plant (five point scale): pre-emergence
Method: as §1

| Compound | LOLPE POST, percentage damage caused to the plant (five point scale) (Lolium perenne (LOLPE)) | LOLPE PRE, percentage damage caused to the plant (five point scale) (Lolium perenne (LOLPE)) | SETFA POST, percentage damage caused to the plant (five point scale) (Setaria faberi (SETFA)) | SETFA PRE, percentage damage caused to the plant (five point scale) (Setaria faberi (SETFA)) | ECHCG POST, percentage damage caused to the plant (five point scale) [1] | ECHCG PRE, percentage damage caused to the plant (five point scale) [1] | AVEFA POST, percentage damage caused to the plant (five point scale) (Avena fatua (AVEFA)) | AVEFA PRE, percentage damage caused to the plant (five point scale) (Avena fatua (AVEFA)) | ALOMY POST, percentage damage caused to the plant (five point scale) [2] | ALOMY PRE, percentage damage caused to the plant (five point scale) [2] |
| --- | --- | --- | --- | --- | --- | --- | --- | --- | --- | --- |
| CC#Cc1ccc(C2=C(OC(=O)C(C)C)[C@@H]3[C@H](C2=O)[C@H]2CC[C@@H]3O2)c(OC)c1 (racemic) [Compound 1.1, isobutyric acid 4-(2-methoxy-4-prop-1-ynyl-phenyl)-5-oxo-10-oxa-tricyclo[5.2.1.0^2,6]dec-3-en-3-yl ester] | 5 (5=80-100%) | 5 (5=80-100%) | 5 (5=80-100%) | 5 (5=80-100%) | 5 (5=80-100%) | 5 (5=80-100%) | 5 (5=80-100%) | 5 (5=80-100%) |  |  |
| CC#Cc1ccc(C2C(=O)[C@@H]3[C@@H]4O[C@@H](C[C@@H]4C)[C@@H]3C2=O)c(OC)c1 (mixture of isomers) [Compound 1.3] | 5 (5=80-100%) | 5 (5=80-100%) | 5 (5=80-100%) | 5 (5=80-100%) | 5 (5=80-100%) | 5 (5=80-100%) | 5 (5=80-100%) | 5 (5=80-100%) | 5 (5=80-100%) | 5 (5=80-100%) |
| CC#Cc1ccc(C2C(=O)[C@H]3[C@@H]4CC[C@@](C)(O4)[C@H]3C2=O)c(OC)c1 (mixture of isomers) [Compound 1.5] | 5 (5=80-100%) | 5 (5=80-100%) | 5 (5=80-100%) | 5 (5=80-100%) | 5 (5=80-100%) | 5 (5=80-100%) | 5 (5=80-100%) | 5 (5=80-100%) | 5 (5=80-100%) | 5 (5=80-100%) |
| CC#Cc1ccc(C2C(=O)[C@H]3[C@@H]4C=C[C@@](C)(O4)[C@H]3C2=O)c(OC)c1 (mixture of isomers) [Compound 1.6] | 5 (5=80-100%) | 5 (5=80-100%) | 5 (5=80-100%) | 5 (5=80-100%) | 5 (5=80-100%) | 5 (5=80-100%) | 5 (5=80-100%) | 3 (3=40-59%) | 2 (2=20-39%) | 5 (5=80-100%) |
| CC#Cc1ccc(C2C(=O)[C@@H]3[C@@H]4O[C@@H](C[C@@H]4COC)[C@@H]3C2=O)c(OC)c1 (mixture of isomers) [Compound 1.9, 8-methoxymethyl-4-[2-methoxy-4-(prop-1-yn-1-yl)phenyl]-10-oxatricyclo[5.2.1.0^2,6]decane-3,5-dione] | 5 (5=80-100%) | 5 (5=80-100%) | 5 (5=80-100%) | 5 (5=80-100%) | 5 (5=80-100%) | 5 (5=80-100%) | 5 (5=80-100%) | 5 (5=80-100%) | 5 (5=80-100%) | 5 (5=80-100%) |
| CC#Cc1ccc(C2C(=O)[C@H]3[C@@H]4CC[C@@](COC)(O4)[C@H]3C2=O)c(OC)c1 (mixture of isomers) [Compound 1.12] | 5 (5=80-100%) | 5 (5=80-100%) | 5 (5=80-100%) | 5 (5=80-100%) | 5 (5=80-100%) | 5 (5=80-100%) | 5 (5=80-100%) | 5 (5=80-100%) | 5 (5=80-100%) | 5 (5=80-100%) |
| CC#Cc1ccc(C2C(=O)[C@@H]3[C@@H]4O[C@@H](C[C@@H]4CO)[C@@H]3C2=O)c(OC)c1 (mixture of isomers) [Compound 1.14] | 4 (4=60-79%) |  | 5 (5=80-100%) |  | 5 (5=80-100%) |  | 5 (5=80-100%) |  | 3 (3=40-59%) |  |
| CC#Cc1ccc(C2C(=O)[C@@H]3[C@@H]4O[C@@H](C[C@H]4COC)[C@@H]3C2=O)c(OC)c1 (mixture of isomers) [Compound 1.15] | 5 (5=80-100%) | 5 (5=80-100%) | 5 (5=80-100%) | 5 (5=80-100%) | 5 (5=80-100%) | 5 (5=80-100%) | 5 (5=80-100%) | 5 (5=80-100%) | 5 (5=80-100%) | 5 (5=80-100%) |
| CC#Cc1ccc(C2C(=O)[C@@H]3[C@H](C2=O)[C@H]2C=C(C)[C@@H]3O2)c(OC)c1 (mixture of isomers) [Compound 1.16] | 5 (5=80-100%) | 5 (5=80-100%) | 5 (5=80-100%) | 5 (5=80-100%) | 5 (5=80-100%) | 5 (5=80-100%) | 5 (5=80-100%) | 5 (5=80-100%) | 5 (5=80-100%) | 5 (5=80-100%) |
| CC#Cc1ccc(C2C(=O)[C@@H]3[C@@H]4O[C@@H](C[C@H]4/C=N/OC)[C@@H]3C2=O)c(OC)c1 (mixture of isomers) [Compound 1.17] | 5 (5=80-100%) | 5 (5=80-100%) | 5 (5=80-100%) | 5 (5=80-100%) | 5 (5=80-100%) | 5 (5=80-100%) | 5 (5=80-100%) | 5 (5=80-100%) | 5 (5=80-100%) | 5 (5=80-100%) |
| CC#Cc1ccc(C2C(=O)[C@@H]3[C@@H]4O[C@@H](C[C@@H]4C4OCCO4)[C@@H]3C2=O)c(OC)c1 (mixture of isomers) [Compound 1.18] | 5 (5=80-100%) | 5 (5=80-100%) | 5 (5=80-100%) | 5 (5=80-100%) | 5 (5=80-100%) | 5 (5=80-100%) | 5 (5=80-100%) | 4 (4=60-79%) | 5 (5=80-100%) | 4 (4=60-79%) |
| CC#Cc1ccc(C2C(=O)[C@@H]3[C@@H]4O[C@@H](C[C@@H]4OC)[C@@H]3C2=O)c(OC)c1 (mixture of isomers) [Compound 1.25] | 5 (5=80-100%) | 5 (5=80-100%) | 5 (5=80-100%) | 5 (5=80-100%) | 5 (5=80-100%) | 5 (5=80-100%) | 5 (5=80-100%) | 5 (5=80-100%) | 5 (5=80-100%) | 5 (5=80-100%) |
